One block for each substance: values may come before it.
Experiments:
[1] = system: CD8+ T cells of healthy donors; test: In vitro T-cell priming with aAPCs loaded with peptide/MHC complexes and anti-CD28 antibody; type: cell-based, human; conditions: pMHC multimer readout
Experimental: In order to obtain information regarding the immunogenicity of the TUMAPs of the present invention, the inventors performed investigations using an in vitro T-cell priming assay based on repeated stimulations of CD8+ T cells with artificial antigen presenting cells (aAPCs) loaded with peptide/MHC complexes and anti-CD28 antibody. […]
Generation of pMHC/anti-CD28 coated beads, T-cell stimulations and readout was performed in a highly defined in vitro system using four different pMHC molecules per stimulation condition and 8 different pMHC molecules per readout condition. […]
800.000 beads/200 μl were coated in 96-well plates in the presence of 4×12.5 ng different biotin-pMHC, washed and 600 ng biotin anti-CD28 were added subsequently in a volume of 200 μl. […] For the pMHC multimer readout using 8 different pMHC molecules per condition, a two-dimensional combinatorial coding approach was used as previously described (Andersen et al., Nat. Protoc. 7 (2012): 891-902) with minor modifications encompassing coupling to 5 different fluorochromes. […] Peptide specific cells were calculated as percentage of total CD8+cells. […] In vitro priming of specific multimer+ CD8+ lymphocytes was detected by comparing to negative control stimulations.

MHC class I = test: MHC binding assay (peptide-ligand exchange, β2m ELISA); set-up: species or system human; conditions: yield of UV-exchange reaction
Description: Candidate peptides for T cell based therapies according to the present invention were further tested for their MHC binding capacity (affinity). The individual peptide-MHC complexes were produced by peptide-ligand exchange, where a cleavage-sensitive peptide is cleaved, and exchanged with the peptide of interest as analyzed. Only peptide candidates that can effectively bind and stabilize the peptide-receptive MHC molecules prevent dissociation of the MHC complexes. To determine the yield of the exchange reaction, an ELISA was performed based on the detection of the light chain (β2m) of stabilized MHC complexes. The assay was performed as generally described in Rodenko et al. (Rodenko et al., Nat Protoc. 1 (2006): 1120-1132).
96 well MAXISorp plates (NUNC) were coated over night with 2 ug/ml streptavidin in PBS at room temperature, washed 4× and blocked for 1 h at 37° C. in 2% BSA containing blocking buffer. Refolded HLA-A*0201/MLA-001 monomers served as standards, covering the range of 15-500 ng/ml. Peptide-MHC monomers of the UV-exchange reaction were diluted 100 fold in blocking buffer. Samples were incubated for 1 h at 37° C., washed four times, incubated with 2 ug/ml HRP conjugated anti-β2m for 1 h at 37° C., washed again and detected with TMB solution that is stopped with […]. Absorption was measured at 450 nm. […]

CLL patient CD8+ T cells = test: HLA:peptide tetramer staining; type: cell-based, human
Experimental: The frequency of peptide-specific CD8^+ T cells was determined by staining with anti-CD8 and HLA:peptide-tetramer-PE

[2] = system: peptide-specific CD8+ T cells of CLL patient PBMC; test: Intracellular IFN-γ and TNF-α staining; type: cell-based, human; conditions: peptide stimulated CLL patient PBMC
Experimental: PBMC from CLL patients and healthy volunteers were cultured in RPMI1640 medium (Gibco) supplemented with 10% pooled human serum (PHS, produced in-house), […] β-mercaptoethanol (Roth, Karlsruhe, Germany) and 1% penicillin/streptomycin (GE). For CD8^+ T cell stimulation, PBMC were thawed and pulsed with 1 μg/ml per peptide. Peptide-pulsed PBMC (5-6×10^6 cells/ml) were cultured at 37° C. and 5% CO2 for 12 days. On day 0 and day […] IL-4 (R&D Systems, Minneapolis, Minn., USA) and 5 ng/ml IL-7 (Promokine, Heidelberg, Germany) were added to the culture medium. On days 3, 5, 7 and 9, 2 ng/ml IL-2 (R&D Systems) were added to the culture medium. Peptide-stimulated PBMC were functionally characterized by ELISPOT assays on day 12 and by intracellular cytokine staining on day 13 respectively. For CD4^+ T-cell stimulation, culture was performed as described for CD8^+ T cells with 2 modifications: pulsing was carried out with 10 μg/ml of HLA class II peptide and no IL-4 and IL-7 was added.
The frequency and functionality of peptide-specific CD8^+ T cells was analyzed by intracellular IFN-γ and TNF-α staining. PBMC were pulsed with 1 μg/ml of individual peptide and incubated in the presence of 10 μg/ml Brefeldin A (Sigma, St. Louis, Mo., USA) and 10 μg/ml GolgiStop (BD) for 6-8 h. […] Samples were analyzed on a FACS Canto II.

Substance: KFAEEFYSF (listed as Homo sapiens) [SEQ ID NO: 20]
in vitro T-cell responses, positive donors of tested donors [1]: 2 of 5

Peptide exchange (MHC class I binding score) (MHC class I): ++++ (>=75% = ++++)
Substance: 229 (FRVGNVQEL; listed as Homo sapiens) [compound 229]

Peptide exchange (MHC class I binding score) (MHC class I): ++++ (>=75% = ++++)
Substance: 239 (SENAFYLSP; listed as Homo sapiens) [compound 239]

Substance: SSSGLHPPK (listed as Homo sapiens) [SEQ ID NO: 77]
tetramer staining of CD8+ T cells (CLL patient CD8+ T cells): confirmed
intracellular cytokine staining for IFNγ and TNFα [2]: confirmed

— patent US10450346B2, “Immunotherapy against several tumors of the blood, in particular chronic lymphoid leukemia (CLL)” (Immatics biotechnologies GmbH, priority 2014, dated 2019)
